# Results taken from paper PMC7023394, “Cell Penetrating Peptide as a High Safety Anti-Inflammation Ingredient for Cosmetic Applications” (Biomolecules, 2020).
# Where no end group is shown, it is not given here.
# Tests used:
# [1] = system: cysteine- or lysine-containing peptide; assay: In chemico skin sensitization: Direct Peptide Reactivity Assay (DPRA, OECD 442C); conditions: for DPRA Prediction: cysteine 1:10/lysine 1:50 prediction model
# Protocol: The direct peptide reactivity assay (DPRA) is an in chemico method which quantified the remaining concentration of cysteine- or lysine-containing peptide after 24 h incubation with the test chemical at 25 °C. Relative peptide concentration was measured by HPLC (Waters, Milford, MA, USA) with gradient elution and UV detection (220 nm). […] This model allowed to classify the test chemical to one of four reactivity classes used to support the discrimination between sensitisers and non-sensitisers.
# [2] = Stability of CPPAIF in W/O and O/W emulsions (HPLC); format: physicochemical; conditions: 0.1 mM CPPAIF
# [3] = system: Raw264.7 macrophage cells; format: cell-based; conditions: 1 µM
# Protocol: In this experiment, macrophage (Raw264.7) cells were seeded in 96-well plates (5 × 10^5 cells/mL) and allowed to attach overnight. After attachment, cells were incubated with various concentrations of CPPAIF for 1 h and followed by stimulation with 1 μg/mL of LPS (lipopolysaccharide). No LPS-added cells were considered as control groups. After incubation, the amount of TNF-α and IL-6 in the medium were analyzed by enzyme linked immunosorbent assay (# KHC3011 and #EH2IL6, Thermo Fisher, Waltham, MA, USA). Cell viability was measured by AlamarBlue cell viability assay (BUF012B, Bio-Rad, Hercules, CA, USA).
# Figure 5 Anti-inflammation activity of CPPAIF. Raw264.7 macrophage cells were seeded in 96-well plates (5 × 10^5 cells/mL) and allowed to attach overnight. After attachment, the cells were incubated with various concentrations of CPPAIF for 1 h followed by stimulation with 1 μg/mL of LPS. The control group was not treated with LPS and its cytokine secretion was set as 100% (mock). The amounts of TNFα (A) and IL-6 (B) in the medium were analyzed by ELISA. Cell viability was measured by AlamarBlue cell viability assay. *** p < 0.001 versus the control group.
# [4] = system: RBL-2H3 mast cells; assay: Mast cell degranulation assay (β-hexosaminidase release); format: cell-based, rat; conditions: under 10 μM (0, 0.1, 1, 2, 5, 10 μM); PC A23187 set as 100%
# Protocol: Inhibitory effects on release of β-hexosaminidase in RBL-2H3 (rat-basophilic leukemia cell line) were evaluated by a cell degranulation assay. Briefly, 0.2 mL of 5 × 10^5 cells/mL RBL-2H3 cells were seed in 24-well plates (in Minimum Essential Medium (MEM) containing 10% Fetal Bovine Serum (FBS), streptomycin (100 µg/mL) and penicillin (100 units/mL)) and sensitized with anti-DNP IgE (0.45 µg/mL). These cells were washed with Siraganian buffer (5 mM KCl, 0.4 mM MgCl2, 119 mM NaCl, 25 mM piperazine-N,N 2-bis(2-ethane sulfonic acid (PIPES), and 40 mM NaOH, pH 7.2) with glucose, 1 mM CaCl2, and 0.1% bovine serum albumin (BSA). After washing, these cell were incubated in 160 µL of the PBS for 10 min at 37 °C and then 20 µL of test sample solution or calcimycin (final 1 mM) was added and further incubated for 10 min. The plate was cooling on ice for 10 min to stop reaction. 50 µL of supernatant was transferred to 96-well plate and added with 50 µL of substrate (1 mM p-nitrophenyl N-acetyl-β-D-glucosaminide) in 0.1 M citrate buffer (pH 4.5) at 37 °C for 2.5 h. The reaction was stopped by adding 200 µL of carbonate-bicarbonate buffer (0.1 M, pH 10.0). The value of A405 was measured with a microplate reader.
# Figure 6 Sensitization test of CPPAIF. The sensitization of CPPAIF was evaluated by mast cell degranulation assay. […]
# [5] = system: SkinEthic RHE 3D reconstructed human epidermis tissue model; assay: In vitro skin irritation test (OECD 439); conditions: 1 mM
# [6] = system: 3D human epidermis tissue model (SkinEthic RHE); assay: Transepidermal measurement by reconstructed human epidermis tissue model; format: in vitro ADME; conditions: 100 μL containing 100 μM CPPAIF, of exposure (method and legend: 1 h), HPLC, mean ± SD of three
# Protocol: 3D human epidermis tissue model (SkinEthic™ RHE, SkinEthics, Lyon, France) and two kinds of CPPAIF-containing emulsion systems (water-in-oil emulsion (W/O) and oil-in-water emulsion (O/W)) were prepared for the transepidermal measurements. […] After treatment liquid beneath the model was collected for HPLC quantification. Transepidermal rate was calculated by measuring the amount of CPPAIF in medium beneath the 3D model by HPLC ((concentration of the beneath liquid/concentration of the topical exposure) × 100).
# Figure 8 Transepidermal degree of formulated CPPAIF in SkinEthic^TM RHE model. All 3D reconstructed human epidermis tissues were incubated with growth medium for 2 h, then 0.1 mL formulated CPPAIF (0.1 mM) emulsions were added to the top of the tissues and incubated for 1 h. After treatment the liquid beneath the 3D skin model was collected for HPLC quantification. Transepidermal degree was calculated by measuring the amount of CPPAIF in the liquid beneath the 3D skin model using HPLC. ** p < 0.01 versus the W/O formulation group.
# [7] = system: HaCaT cells; assay: Internalization of TMR-CPPAIF in human keratinocytes (confocal microscopy); format: cell-based; conditions: 20 µM, 37 °C, 30 min, confocal laser-scanning microscopy
# Protocol: Confocal Laser-scanning Microscopy (CLSM, Zeiss Cell Observer-Z1, Baden-Württemberg, Germany) was performed to assess distribution of TMR-labeled CPPAIF (tetramethylrhodamine-[…], synthesized by Kelowna International Scientific, Taipei, Taiwan) in human keratinocytes, HaCaT. First, apply a layer of type I collagen on a glass cover slip, dry and sterilize the cover slip with UV light. Then, culture the HaCaT cells ([…] per slip) on the coverslip for 16 h. The attached HaCaT cells were cultured with 20 μM of the TMR- CPPAIF for 30 min, observed with CLSM (63× oil-immersion objective lens), and photographed under same exposure conditions.
# Figure 7 Internalization of TMR-CPPAIF. HaCaT cells (1 × 10^3) were seeded on collagen I coated cover slide and incubated at 37 °C for 16 h. The cells were then incubatd with 20 μM of TMR-CPPAIF at 37 °C for 30 min. After washing and fixing, the cells were mounted and monitored by confocal microscopy. Red: TMR; Blue: nuclear staining with DAPI. (Magnification: 63×).
# [8] = test item 100 mM, 24 h, 25 °C, HPLC, UV 220 nm
compound,measurement,setting,value
"OCCOc1ccccc1 [Phenoxyethanol, phenoxyethanol]",Cysteine Depletion,[1]; [8],1.38%
same,Lysine Depletion,[1]; [8],−0.25%
same,Mean of Cysteine and Lysine % Depletion,[1]; [8],0.56%
same,DPRA Prediction,[1]; test item 100 mM,Non-sensitiser
NYRWRCKNQN [CPPAIF],stability of CPPAIF in emulsion compositions,[2],did not influence stability
same,cell viability,[3],85.2 ± 4.25%
same,DPRA Prediction,[1]; test item 0.1 mM,Non-sensitiser
same,mast cell degranulation release (β-hexosaminidase),[4],did not induce any mast cell degranulation release
same,skin irritation classification of OECD 439,[5],did not cause skin irritation (no category)
same,Transepidermal degree ((concentration in the beneath liquid/concentration in the topical exposure) × 100),[6]; O/W formulation,28.4 ± 1.7%
same,Transepidermal degree ((concentration in the beneath liquid/concentration in the topical exposure) × 100),[6]; W/O formulation,41.4 ± 3.6%
"tetramethylrhodamine-NYRWRCKNQN [TMR-CPPAIF, tetramethylrhodamine-labeled CPPAIF]",internalization into cells (TMR signal),[7],internalized into the cells
